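Where inhibition never reached the appropriate level, the endpoint shown equals the highest concentration tested. Otherwise, values were interpolated linearly from a five-concentration, 48-hour dose response in 96-well plates. TGI: total growth inhibition.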
How the values were obtained:
Assay in all cases: growth of human tumour cells (NCI), 48 h
SN12C renal = system: SN12C renal
M19-MEL melanoma = system: M19-MEL melanoma
MOLT-4 leukemia = system: MOLT-4 leukemia
OVCAR-4 ovarian = system: OVCAR-4 ovarian
KM20L2 colon = system: KM20L2 colon
UACC-62 melanoma = system: UACC-62 melanoma
NCI-H226 lung = system: NCI-H226 lung
LOX IMVI melanoma = system: LOX IMVI melanoma
KM12 colon = system: KM12 colon
OVCAR-8 ovarian = system: OVCAR-8 ovarian
SW-620 colon = system: SW-620 colon
TK-10 renal = system: TK-10 renal
HOP-18 NSCLC = system: HOP-18 NSCLC
SK-OV-3 ovarian = system: SK-OV-3 ovarian
SNB-78 CNS = system: SNB-78 CNS
OVCAR-5 ovarian = system: OVCAR-5 ovarian
MALME-3M melanoma = system: MALME-3M melanoma
A498 renal = system: A498 renal
A549 NSCLC = system: A549 NSCLC
DMS 273 small cell lung = system: DMS 273 small cell lung
SF-268 CNS = system: SF-268 CNS
NCI-H23 lung = system: NCI-H23 lung
SF-295 CNS = system: SF-295 CNS
CAKI-1 renal = system: CAKI-1 renal
IGROV1 ovarian = system: IGROV1 ovarian
RXF 393 renal = system: RXF 393 renal
U251 CNS = system: U251 CNS
CCRF-CEM leukemia = system: CCRF-CEM leukemia
SK-MEL-28 melanoma = system: SK-MEL-28 melanoma
RXF-631 renal = system: RXF-631 renal
786-0 renal = system: 786-0 renal
HOP-62 NSCLC = system: HOP-62 NSCLC
NCI-H460 lung = system: NCI-H460 lung
HCC-2998 colon = system: HCC-2998 colon
SNB-19 CNS = system: SNB-19 CNS
SNB-75 CNS = system: SNB-75 CNS
HCT-15 colon = system: HCT-15 colon
ACHN renal = system: ACHN renal
HOP-92 NSCLC = system: HOP-92 NSCLC
HT29 colon = system: HT29 colon
HCT-116 colon = system: HCT-116 colon
SK-MEL-5 melanoma = system: SK-MEL-5 melanoma
K-562 leukemia = system: K-562 leukemia
NCI-H522 lung = system: NCI-H522 lung
M14 melanoma = system: M14 melanoma
EKVX NSCLC = system: EKVX NSCLC
COLO 205 colon = system: COLO 205 colon
SF-539 CNS = system: SF-539 CNS
UACC-257 melanoma = system: UACC-257 melanoma
HL-60(TB) leukemia = system: HL-60(TB) leukemia
UO-31 renal = system: UO-31 renal
DMS 114 small cell lung = system: DMS 114 small cell lung
RPMI-8226 leukemia = system: RPMI-8226 leukemia
SK-MEL-2 melanoma = system: SK-MEL-2 melanoma
LXFL 529 NSCLC = system: LXFL 529 NSCLC
OVCAR-3 ovarian = system: OVCAR-3 ovarian
DLD-1 colon = system: DLD-1 colon
XF 498 CNS = system: XF 498 CNS

In the case of `Cc1ccc(Sc2ccccc2N)cc1`, the TGI (SN12C renal) was greater than 100 µM, the TGI (M19-MEL melanoma) was greater than 100 µM and the TGI (MOLT-4 leukemia) was 58.4 µM. It also gave a TGI (OVCAR-4 ovarian) greater than 100 µM, a TGI (KM20L2 colon) greater than 100 µM and a TGI (UACC-62 melanoma) greater than 100 µM. It also gave a TGI (NCI-H226 lung) of 66.4 µM, a TGI (LOX IMVI melanoma) greater than 100 µM and a TGI (KM12 colon) greater than 100 µM. The TGI (OVCAR-8 ovarian) was greater than 100 µM, the TGI (SW-620 colon) was greater than 100 µM and the TGI (TK-10 renal) was greater than 100 µM. It also gave a TGI (HOP-18 NSCLC) greater than 100 µM, a TGI (SK-OV-3 ovarian) greater than 100 µM and a TGI (SNB-78 CNS) greater than 100 µM. For the same molecule, the TGI (OVCAR-5 ovarian) was greater than 100 µM, the TGI (MALME-3M melanoma) was greater than 100 µM and the TGI (A498 renal) was greater than 100 µM. It also gave a TGI (A549 NSCLC) greater than 100 µM, a TGI (DMS 273 small cell lung) greater than 100 µM and a TGI (SF-268 CNS) greater than 100 µM. For the same molecule, the TGI (NCI-H23 lung) was 93.3 µM, the TGI (SF-295 CNS) was greater than 100 µM and the TGI (CAKI-1 renal) was 67 µM. It also gave a TGI (IGROV1 ovarian) greater than 100 µM, a TGI (RXF 393 renal) of 47.2 µM and a TGI (U251 CNS) greater than 100 µM. It also gave a TGI (CCRF-CEM leukemia) of 70 µM, a TGI (SK-MEL-28 melanoma) greater than 100 µM and a TGI (RXF-631 renal) greater than 100 µM. The TGI (786-0 renal) was greater than 100 µM, the TGI (HOP-62 NSCLC) was 29.6 µM and the TGI (NCI-H460 lung) was greater than 100 µM. It also gave a TGI (HCC-2998 colon) greater than 100 µM, a TGI (SNB-19 CNS) greater than 100 µM and a TGI (SNB-75 CNS) greater than 100 µM. For the same molecule, the TGI (HCT-15 colon) was greater than 100 µM, the TGI (ACHN renal) was greater than 100 µM and the TGI (HOP-92 NSCLC) was 54.7 µM. The TGI (HT29 colon) was greater than 100 µM, the TGI (HCT-116 colon) was greater than 100 µM and the TGI (SK-MEL-5 melanoma) was 45.5 µM. For the same molecule, the TGI (K-562 leukemia) was greater than 100 µM, the TGI (NCI-H522 lung) was 38.1 µM and the TGI (M14 melanoma) was greater than 100 µM. For the same molecule, the TGI (EKVX NSCLC) was greater than 100 µM, the TGI (COLO 205 colon) was greater than 100 µM and the TGI (SF-539 CNS) was 87.9 µM. For the same molecule, the TGI (UACC-257 melanoma) was greater than 100 µM, the TGI (HL-60(TB) leukemia) was 49.6 µM and the TGI (UO-31 renal) was 31.5 µM. It also gave a TGI (DMS 114 small cell lung) greater than 100 µM, a TGI (RPMI-8226 leukemia) of 53.4 µM and a TGI (SK-MEL-2 melanoma) greater than 100 µM. The TGI (LXFL 529 NSCLC) was 32.9 µM and the TGI (OVCAR-3 ovarian) was greater than 100 µM.
In the case of `NC(N)=NS(=O)(=O)c1ccc(NC(=O)c2cccc3c(N)c4ccccc4nc23)cc1`, the TGI (DLD-1 colon) was greater than 100 µM, the TGI (SN12C renal) was greater than 100 µM and the TGI (M19-MEL melanoma) was greater than 100 µM. It also gave a TGI (MOLT-4 leukemia) greater than 100 µM, a TGI (OVCAR-4 ovarian) greater than 100 µM and a TGI (KM20L2 colon) greater than 100 µM. It also gave a TGI (UACC-62 melanoma) greater than 100 µM, a TGI (NCI-H226 lung) greater than 100 µM and a TGI (LOX IMVI melanoma) greater than 100 µM. The TGI (KM12 colon) was greater than 100 µM, the TGI (OVCAR-8 ovarian) was greater than 100 µM and the TGI (SW-620 colon) was greater than 100 µM. For the same molecule, the TGI (TK-10 renal) was greater than 100 µM, the TGI (SK-OV-3 ovarian) was greater than 100 µM and the TGI (XF 498 CNS) was greater than 100 µM. The TGI (SNB-78 CNS) was greater than 100 µM, the TGI (OVCAR-5 ovarian) was greater than 100 µM and the TGI (MALME-3M melanoma) was greater than 100 µM. It also gave a TGI (A498 renal) greater than 100 µM, a TGI (A549 NSCLC) greater than 100 µM and a TGI (DMS 273 small cell lung) greater than 100 µM. It also gave a TGI (SF-268 CNS) greater than 100 µM, a TGI (NCI-H23 lung) greater than 100 µM and a TGI (SF-295 CNS) greater than 100 µM. For the same molecule, the TGI (CAKI-1 renal) was greater than 100 µM, the TGI (IGROV1 ovarian) was greater than 100 µM and the TGI (RXF 393 renal) was greater than 100 µM. For the same molecule, the TGI (U251 CNS) was greater than 100 µM, the TGI (CCRF-CEM leukemia) was greater than 100 µM and the TGI (SK-MEL-28 melanoma) was greater than 100 µM. For the same molecule, the TGI (RXF-631 renal) was greater than 100 µM, the TGI (786-0 renal) was greater than 100 µM and the TGI (HOP-62 NSCLC) was greater than 100 µM. It also gave a TGI (NCI-H460 lung) greater than 100 µM, a TGI (HCC-2998 colon) greater than 100 µM and a TGI (SNB-19 CNS) greater than 100 µM. For the same molecule, the TGI (SNB-75 CNS) was greater than 100 µM, the TGI (HCT-15 colon) was greater than 100 µM and the TGI (ACHN renal) was greater than 100 µM. For the same molecule, the TGI (HCT-116 colon) was greater than 100 µM, the TGI (SK-MEL-5 melanoma) was greater than 100 µM and the TGI (K-562 leukemia) was greater than 100 µM. It also gave a TGI (NCI-H522 lung) greater than 100 µM, a TGI (M14 melanoma) greater than 100 µM and a TGI (EKVX NSCLC) greater than 100 µM. For the same molecule, the TGI (COLO 205 colon) was greater than 100 µM, the TGI (SF-539 CNS) was greater than 100 µM and the TGI (UACC-257 melanoma) was greater than 100 µM. For the same molecule, the TGI (UO-31 renal) was greater than 100 µM, the TGI (DMS 114 small cell lung) was greater than 100 µM and the TGI (RPMI-8226 leukemia) was greater than 100 µM. The TGI (SK-MEL-2 melanoma) was greater than 100 µM, the TGI (LXFL 529 NSCLC) was greater than 100 µM and the TGI (OVCAR-3 ovarian) was greater than 100 µM.

Reference: PubChem BioAssay (NCI)
